# Experimental data: patent publication US20170298402A1, “SELF-LABELING NUCLEIC ACIDS AND METHODS OF USE” (President and Fellows of Harvard College, priority 2014, published 2017)
# Test system: post-round 6 RNA pool
# Test: Streptavidin gel mobility shift of post-round 6 RNA pool with each electrophilic probe
# Type: biochemical
# Conditions: streptavidin incubation and gel mobility shift
# Description: The reaction between small-molecule probe(s) and the RNA pool was performed as follows: the RNA pool (1 μM) in buffer containing 150 mM NaCl, 25 mM Na-HEPES, pH 7.4, was heated at 65° C. for 5 minutes, then allowed to cool for an additional 5 minutes. MgCl2 (10 mM) was then added for a total volume of 45 μL and the solution incubated for 10 minutes, followed by addition of 1.3 mM of the biotinylated small-molecule probe in DMSO. After incubation for the desired time, the RNA was precipitated by the addition of 5 μL of 3 M NaOAc and 180 μL of EtOH.
# The pellet resulting from EtOH precipitation of a reaction of RNA (750 ng) with a small-molecule probe was resuspended in 21 μL H2O. The RNA (7 μL) and streptavidin (NEB; 1 μg) were incubated at room temperature for 25 minutes and then combined with gel electrophoresis loading buffer. The sample was electrophoresed on a 10% PAGE denaturing gel (240 V, 35 minutes) and visualized following incubation with SYBR Green II (Life Technologies).
# To identify the electrophile(s) that reacted with the enriched RNA, we performed one additional round of in vitro selection and then incubated the resulting post-round 6 RNA pool with each of the eight electrophilic probes.
compound,measurement,value
CC1O[C@H]1CCCOCCOC(=O)CCCCC1SCC2NC(=O)NC21 (stereo partly shown) [probe 1],reaction with the post-round 6 RNA pool,reacted
